# Laboratory results reported in patent US11946059B2, “In vivo generation of water-soluble cannabinoids in plant cell suspension cultures” (Trait Biosciences Inc., priority 2017, dated 2024).
# Assay: Cannabinoid stability in solution (time course incubation)
# Assay type: physicochemical
# Conditions: room temperature, shielded from light
# Method: Rather, levels increased slightly in all treatments. The absence of any residual UGTs were cross-check and confirmed as the samples were purified by SPE, washed and eluted in 30% and 65%-100% ethanol, respectively.
# Materials and Methods Example 19: Cannabinoid Stability in Solution.
# The present inventors generated a stock solution of the CBD/CBDA+glycosides mixture in water which was further diluted 10× in all treatment solutions. A 10 mL starting volume was used for all treatments, and all treatments were prepared in triplicate. […] Each sample was incubated at room temperature. Samples were stored in 15 mL polypropylene centrifuge tubes. All samples were shielded from light—tubes were wrapped in aluminum foil. Each sample was prepared in triplicate in the following buffers: water only; pH=3; pH=4; pH=7; pH=8; water only+10 mM ascorbic acid; pH=3+10 mM ascorbic acid; pH=4+10 mM ascorbic acid; pH=7+10 mM ascorbic acid; and pH=8+10 mM ascorbic acid.
# [1] = Water + AA (10 mM ascorbic acid)
# [2] = pH = 3 + AA (10 mM ascorbic acid)
# [3] = pH = 4 + AA (10 mM ascorbic acid)
# [4] = pH = 7 + AA (10 mM ascorbic acid)
# [5] = pH = 8 + AA (10 mM ascorbic acid)
smiles,measurement,setting,value
"C=C(C)[C@@H]1CCC(C)=C[C@H]1c1c(O)cc(CCCCC)cc1O [CBD, cannabidiol, reference compound]",Day 0 concentration in solution,[1],561.85 ± 86.83 µg/mL
same,Day 0 concentration in solution,Water,399.81 ± 111.06 µg/mL
same,Day 0 concentration in solution,[2],565.75 ± 40.96 µg/mL
same,Day 0 concentration in solution,pH = 3,568.71 ± 115.90 µg/mL
same,Day 0 concentration in solution,[3],524.40 ± 34.95 µg/mL
same,Day 0 concentration in solution,pH = 4,505.97 ± 5.10 µg/mL
same,Day 0 concentration in solution,[4],500.03 ± 21.45 µg/mL
same,Day 0 concentration in solution,pH = 7,528.04 ± 91.17 µg/mL
same,Day 0 concentration in solution,[5],1136.36 ± 996.36 µg/mL
same,Day 0 concentration in solution,pH = 8,513.35 ± 39.23 µg/mL
same,Day 1 concentration in solution,[1],428.63 ± 198.77 µg/mL
same,Day 1 concentration in solution,Water,629.00 ± 383.79 µg/mL
same,Day 1 concentration in solution,[2],650.49 ± 12.10 µg/mL
same,Day 1 concentration in solution,pH = 3,713.93 ± 41.47 µg/mL
same,Day 1 concentration in solution,[3],406.17 ± 210.69 µg/mL
same,Day 1 concentration in solution,pH = 4,380.77 ± 233.10 µg/mL
same,Day 1 concentration in solution,[4],505.88 ± 276.58 µg/mL
same,Day 1 concentration in solution,pH = 7,880.54 ± 5.87 µg/mL
same,Day 1 concentration in solution,[5],291.15 ± 78.65 µg/mL
same,Day 1 concentration in solution,pH = 8,747.61 ± 101.87 µg/mL
same,Day 4 concentration in solution,[1],182.66 ± 25.03 µg/mL
same,Day 4 concentration in solution,Water,432.54 ± 251.39 µg/mL
same,Day 4 concentration in solution,[2],232.39 ± 113.88 µg/mL
same,Day 4 concentration in solution,pH = 3,191.94 ± 55.68 µg/mL
same,Day 4 concentration in solution,[3],305.20 ± 97.35 µg/mL
same,Day 4 concentration in solution,pH = 4,278.33 ± 85.33 µg/mL
same,Day 4 concentration in solution,[4],398.16 ± 391.86 µg/mL
same,Day 4 concentration in solution,pH = 7,539.55 ± 260.69 µg/mL
same,Day 4 concentration in solution,[5],173.43 ± 17.53 µg/mL
same,Day 4 concentration in solution,pH = 8,560.90 ± 69.27 µg/mL
same,Day 5 concentration in solution,[1],448.64 ± 33.51 µg/mL
same,Day 5 concentration in solution,Water,466.09 ± 130.53 µg/mL
same,Day 5 concentration in solution,[2],320.48 ± 92.87 µg/mL
same,Day 5 concentration in solution,pH = 3,330.79 ± 138.28 µg/mL
same,Day 5 concentration in solution,[3],366.65 ± 92.35 µg/mL
same,Day 5 concentration in solution,pH = 4,510.50 ± 76.06 µg/mL
same,Day 5 concentration in solution,[4],353.25 ± 135.11 µg/mL
same,Day 5 concentration in solution,pH = 7,593.92 ± 6.30 µg/mL
same,Day 5 concentration in solution,[5],287.24 ± 39.56 µg/mL
same,Day 5 concentration in solution,pH = 8,498.21 ± 92.88 µg/mL
same,Day 6 concentration in solution,[1],957.17 ± 315.70 µg/mL
same,Day 6 concentration in solution,Water,179.13 ± 17.88 µg/mL
same,Day 6 concentration in solution,[2],801.14 ± 230.88 µg/mL
same,Day 6 concentration in solution,pH = 3,607.98 ± 416.07 µg/mL
same,Day 6 concentration in solution,[3],777.26 ± 56.02 µg/mL
same,Day 6 concentration in solution,pH = 4,897.52 ± 65.92 µg/mL
same,Day 6 concentration in solution,[4],828.02 ± 269.38 µg/mL
same,Day 6 concentration in solution,pH = 7,1115.01 ± 169.64 µg/mL
same,Day 6 concentration in solution,[5],847.26 ± 88.56 µg/mL
same,Day 6 concentration in solution,pH = 8,911.61 ± 84.17 µg/mL
same,Day 7 concentration in solution,[1],592.44 ± 87.97 µg/mL
same,Day 7 concentration in solution,Water,680.13 ± 229.24 µg/mL
same,Day 7 concentration in solution,[2],464.35 ± 105.43 µg/mL
same,Day 7 concentration in solution,pH = 3,563.80 ± 65.50 µg/mL
same,Day 7 concentration in solution,[3],557.34 ± 60.39 µg/mL
same,Day 7 concentration in solution,pH = 4,641.86 ± 33.49 µg/mL
same,Day 7 concentration in solution,[4],549.93 ± 39.69 µg/mL
same,Day 7 concentration in solution,pH = 7,544.28 ± 57.97 µg/mL
same,Day 7 concentration in solution,[5],630.99 ± 2.44 µg/mL
same,Day 7 concentration in solution,pH = 8,580.54 ± 94.41 µg/mL
